PubChem BioAssay (NCI)
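Method: 48-hour compound exposure of cells in 96-well plates, five concentrations, linear interpolation of endpoints. GI50 is the concentration that inhibits growth by half. TGI is the concentration that stops growth completely.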

How the values were obtained:
Assay in all cases: inhibition of tumour cell growth, NCI panel, 48 h
[1] = test system: A549 NSCLC
[2] = test system: BT-549 breast
[3] = test system: HOP-62 NSCLC
[4] = test system: SK-MEL-28 melanoma
[5] = test system: NCI-H460 lung
[6] = test system: K-562 leukemia
[7] = test system: SF-539 CNS
[8] = test system: LOX IMVI melanoma
[9] = test system: RPMI-8226 leukemia
[10] = test system: HOP-92 NSCLC
[11] = test system: SK-OV-3 ovarian
[12] = test system: EKVX NSCLC
[13] = test system: PC-3 prostate
[14] = test system: M14 melanoma
[15] = test system: OVCAR-5 ovarian
[16] = test system: SF-295 CNS
[17] = test system: MCF7 breast
[18] = test system: ACHN renal
[19] = test system: NCI/ADR-RES ovarian
[20] = test system: COLO 205 colon
[21] = test system: NCI-H226 lung
[22] = test system: UACC-62 melanoma
[23] = test system: NCI-H522 lung
[24] = test system: RXF 393 renal
[25] = test system: SK-MEL-2 melanoma
[26] = test system: SN12C renal
[27] = test system: TK-10 renal
[28] = test system: MOLT-4 leukemia
[29] = test system: KM12 colon
[30] = test system: U251 CNS
[31] = test system: OVCAR-3 ovarian
[32] = test system: MALME-3M melanoma
[33] = test system: HCT-15 colon
[34] = test system: T-47D breast
[35] = test system: DU-145 prostate
[36] = test system: 786-0 renal
[37] = test system: A498 renal
[38] = test system: HL-60(TB) leukemia
[39] = test system: SK-MEL-5 melanoma
[40] = test system: MDA-MB-231 breast
[41] = test system: HT29 colon
[42] = test system: SNB-75 CNS
[43] = test system: SF-268 CNS
[44] = test system: OVCAR-4 ovarian
[45] = test system: HCT-116 colon
[46] = test system: SR leukemia
[47] = test system: MDA-MB-435
[48] = test system: HCC-2998 colon
[49] = test system: SNB-19 CNS
[50] = test system: CCRF-CEM leukemia
[51] = test system: HS 578T breast
[52] = test system: UACC-257 melanoma
[53] = test system: UO-31 renal
[54] = test system: OVCAR-8 ovarian
[55] = test system: IGROV1 ovarian
[56] = test system: SW-620 colon
[57] = test system: CAKI-1 renal

For N#Cc1c(-c2ccc(Cl)cc2)nc(SCc2ccc(F)cc2)nc1N1CCNCC1, the GI50 [1] was 1.61 µM, the TGI [1] was 3.06 µM and the GI50 [2] was 7.59 µM. The TGI [2] was 22.1 µM, the GI50 [3] was 1.64 µM and the TGI [3] was 3.26 µM. The GI50 [4] was 1.74 µM, the TGI [4] was 3.15 µM and the GI50 [5] was 1.97 µM. It also gave a TGI [5] of 3.74 µM, a GI50 [6] of 2.09 µM and a TGI [6] of 5.22 µM. It also gave a GI50 [7] of 1.71 µM, a TGI [7] of 3.16 µM and a GI50 [8] of 1.7 µM. It also gave a TGI [8] of 3.07 µM, a GI50 [9] of 2.19 µM and a TGI [9] of 5.23 µM. The GI50 [10] was 1.61 µM, the TGI [10] was 8.51 µM and the GI50 [11] was 10.4 µM. The TGI [11] was 24.8 µM, the GI50 [12] was 4.98 µM and the TGI [12] was 19.7 µM. It also gave a GI50 [13] of 1.79 µM, a TGI [13] of 3.75 µM and a GI50 [14] of 1.67 µM. It also gave a TGI [14] of 3.09 µM, a GI50 [15] of 2.2 µM and a TGI [15] of 6.25 µM. It also gave a GI50 [16] of 1.88 µM, a TGI [16] of 3.47 µM and a GI50 [17] of 1.65 µM. It also gave a TGI [17] of 3.29 µM, a GI50 [18] of 1.8 µM and a TGI [18] of 3.19 µM. For the same compound, the GI50 [19] was 1.73 µM, the TGI [19] was 3.28 µM and the GI50 [20] was 1.75 µM. For the same compound, the TGI [20] was 3.2 µM, the GI50 [21] was 5.97 µM and the TGI [21] was 24.9 µM. For the same compound, the GI50 [22] was 1.76 µM, the TGI [22] was 3.33 µM and the GI50 [23] was 1.61 µM. For the same compound, the TGI [23] was 3.08 µM, the GI50 [24] was 1.53 µM and the TGI [24] was 2.87 µM. For the same compound, the GI50 [25] was 14.7 µM, the TGI [25] was 29.3 µM and the GI50 [26] was 1.73 µM. For the same compound, the TGI [26] was 3.33 µM, the GI50 [27] was 10.6 µM and the TGI [27] was 23.9 µM. For the same compound, the GI50 [28] was 2.43 µM, the TGI [28] was 6.54 µM and the GI50 [29] was 1.91 µM. For the same compound, the TGI [29] was 3.82 µM, the GI50 [30] was 1.69 µM and the TGI [30] was 3.13 µM. The GI50 [31] was 1.89 µM, the TGI [31] was 3.71 µM and the GI50 [32] was 1.69 µM. It also gave a TGI [32] of 3.35 µM, a GI50 [33] of 1.81 µM and a TGI [33] of 3.45 µM. The GI50 [34] was 1.69 µM, the TGI [34] was 3.52 µM and the GI50 [35] was 2.59 µM. The TGI [35] was 6.54 µM, the GI50 [36] was 1.61 µM and the TGI [36] was 3.2 µM. For the same compound, the GI50 [37] was 14.3 µM, the TGI [37] was 30.1 µM and the GI50 [38] was 1.83 µM. For the same compound, the TGI [38] was 4.2 µM, the GI50 [39] was 14.3 µM and the TGI [39] was 29.5 µM. The GI50 [40] was 1.83 µM, the TGI [40] was 3.47 µM and the GI50 [41] was 1.74 µM. For the same compound, the TGI [41] was 3.14 µM, the GI50 [42] was 1.46 µM and the TGI [42] was 2.83 µM. The GI50 [43] was 2.27 µM, the TGI [43] was 5.82 µM and the GI50 [44] was 1.78 µM. The TGI [44] was 4.06 µM, the GI50 [45] was 1.72 µM and the TGI [45] was 3.09 µM. For the same compound, the GI50 [46] was 1.99 µM, the TGI [46] was 4.79 µM and the GI50 [47] was 1.68 µM. It also gave a TGI [47] of 3.05 µM, a GI50 [48] of 1.8 µM and a TGI [48] of 3.22 µM. It also gave a GI50 [49] of 2.21 µM, a TGI [49] of 6.02 µM and a GI50 [50] of 2.82 µM. It also gave a TGI [50] of 8.28 µM, a GI50 [51] of 1.95 µM and a TGI [51] of 4.45 µM. The GI50 [52] was 1.64 µM, the TGI [52] was 3.13 µM and the GI50 [53] was 1.4 µM. The TGI [53] was 2.83 µM, the GI50 [54] was 1.84 µM and the TGI [54] was 3.45 µM. The GI50 [55] was 1.8 µM, the TGI [55] was 3.57 µM and the GI50 [56] was 1.98 µM. It also gave a TGI [56] of 4.04 µM, a GI50 [57] of 1.4 µM and a TGI [57] of 2.71 µM.
